Laboratory results from US20240293402A1, “FORMULATION CONTAINING DIHYDROPYRIDAZINE-3,5-DIONE DERIVATIVE (as amended)” (CHUGAI SEIYAKU KABUSHIKI KAISHA, priority 2021, published 2024).

Tests used:
Solubility in water = type: physicochemical; settings: general statement
NaPi-IIb = target: T1, NaPi-IIb (Homo sapiens, UniProt O95436); settings: general statement, reported in Patent Literatures 6 and 7; cited from earlier work
T1 sequence (O95436 1-690): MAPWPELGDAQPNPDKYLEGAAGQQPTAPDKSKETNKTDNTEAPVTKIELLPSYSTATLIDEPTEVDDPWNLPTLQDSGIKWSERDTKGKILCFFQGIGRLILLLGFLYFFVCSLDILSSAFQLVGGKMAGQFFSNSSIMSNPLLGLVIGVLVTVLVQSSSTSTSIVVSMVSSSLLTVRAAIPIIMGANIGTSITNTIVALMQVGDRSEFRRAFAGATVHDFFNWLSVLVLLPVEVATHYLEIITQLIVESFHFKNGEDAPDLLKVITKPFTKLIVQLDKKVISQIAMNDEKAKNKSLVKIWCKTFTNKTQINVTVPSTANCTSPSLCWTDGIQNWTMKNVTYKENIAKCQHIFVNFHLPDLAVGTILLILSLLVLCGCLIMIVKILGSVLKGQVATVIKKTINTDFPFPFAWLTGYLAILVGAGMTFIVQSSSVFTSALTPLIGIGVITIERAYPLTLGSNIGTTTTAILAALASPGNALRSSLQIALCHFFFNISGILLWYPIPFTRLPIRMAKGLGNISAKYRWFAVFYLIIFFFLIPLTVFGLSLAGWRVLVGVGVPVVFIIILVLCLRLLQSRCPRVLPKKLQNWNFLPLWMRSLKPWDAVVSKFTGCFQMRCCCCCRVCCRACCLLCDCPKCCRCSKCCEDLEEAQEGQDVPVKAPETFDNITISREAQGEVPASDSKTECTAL

PiT-1 = target: T2, PiT-1 (Homo sapiens, UniProt Q8WUM9); settings: general statement, reported in Patent Literatures 6 and 7; cited from earlier work
T2 sequence (Q8WUM9 1-679): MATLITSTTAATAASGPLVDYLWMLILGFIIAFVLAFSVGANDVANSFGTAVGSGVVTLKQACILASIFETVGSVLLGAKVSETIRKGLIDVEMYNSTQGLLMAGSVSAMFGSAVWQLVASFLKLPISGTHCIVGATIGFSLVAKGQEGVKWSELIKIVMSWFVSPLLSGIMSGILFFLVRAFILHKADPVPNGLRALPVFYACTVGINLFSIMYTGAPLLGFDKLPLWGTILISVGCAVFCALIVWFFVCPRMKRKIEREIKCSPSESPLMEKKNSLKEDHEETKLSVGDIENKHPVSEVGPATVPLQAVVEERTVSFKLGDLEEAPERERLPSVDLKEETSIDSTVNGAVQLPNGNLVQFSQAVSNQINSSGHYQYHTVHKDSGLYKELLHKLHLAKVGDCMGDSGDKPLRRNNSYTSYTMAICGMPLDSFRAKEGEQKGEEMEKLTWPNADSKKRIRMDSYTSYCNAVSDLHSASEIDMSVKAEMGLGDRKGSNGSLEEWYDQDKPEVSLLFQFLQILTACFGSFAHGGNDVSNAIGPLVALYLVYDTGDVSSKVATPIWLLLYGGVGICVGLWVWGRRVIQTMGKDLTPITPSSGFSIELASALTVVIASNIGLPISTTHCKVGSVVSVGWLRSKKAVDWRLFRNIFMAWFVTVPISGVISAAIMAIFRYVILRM

PiT-2 = target: T3, PiT-2 (Homo sapiens, UniProt Q08357); settings: general statement, reported in Patent Literatures 6 and 7; cited from earlier work
T3 sequence (Q08357 1-652): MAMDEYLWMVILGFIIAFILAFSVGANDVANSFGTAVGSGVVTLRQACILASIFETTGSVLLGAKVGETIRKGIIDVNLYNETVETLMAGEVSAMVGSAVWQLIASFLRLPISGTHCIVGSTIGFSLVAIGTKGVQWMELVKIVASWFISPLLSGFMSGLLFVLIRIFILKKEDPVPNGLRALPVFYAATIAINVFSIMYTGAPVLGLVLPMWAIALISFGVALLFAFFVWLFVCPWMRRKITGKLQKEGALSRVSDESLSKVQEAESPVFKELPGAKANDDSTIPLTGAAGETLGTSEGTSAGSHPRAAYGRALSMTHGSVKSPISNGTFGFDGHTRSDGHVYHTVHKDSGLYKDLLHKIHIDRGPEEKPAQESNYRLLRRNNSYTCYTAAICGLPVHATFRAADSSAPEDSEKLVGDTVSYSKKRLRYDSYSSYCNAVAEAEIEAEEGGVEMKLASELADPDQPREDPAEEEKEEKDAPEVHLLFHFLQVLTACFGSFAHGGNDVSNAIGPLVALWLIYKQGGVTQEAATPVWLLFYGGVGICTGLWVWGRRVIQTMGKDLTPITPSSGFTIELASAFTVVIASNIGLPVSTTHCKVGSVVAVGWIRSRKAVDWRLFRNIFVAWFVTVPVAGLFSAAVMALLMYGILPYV

solubility in water (Solubility in water): hardly soluble in water
SMILES: COCCN(C)CCOc1ccc(CN2C(=O)C(C(=O)Nc3ccc(C(F)(F)F)cc3-c3cc(C(F)(F)F)ncn3)=C(O)C3(CCCC3)N2C)c(F)c1F.Cc1ccc(S(=O)(=O)O)cc1 [Compound I, 7-[[2,3-difluoro-4-[2-[2-methoxyethyl(methyl)amino]ethoxy]phenyl]methyl]-10-hydroxy-6-methyl-8-oxo-N-[4-(trifluoromethyl)-2-[6-(trifluoromethyl)pyrimidin-4-yl]phenyl]-6,7-diazaspiro[4,5]deca-9-ene-9-carboxamide]
inhibitory action on NaPi-IIb (NaPi-IIb): strong inhibitory action
inhibitory action on PiT-1 (PiT-1): strong inhibitory action
inhibitory action on PiT-2 (PiT-2): strong inhibitory action
